Entries after “also recorded” stand apart in the source; their conditions may differ.
Legend:
[1] = tested on: nitric oxide (NO) production; test: Nitrite measurement (Griess reaction) in LPS-treated microglia-neuron co-cultures; format: cell-based, rat; conditions: for effect on nitrite accumulation / NO production: 100 ng/ml LPS, 48 hours, same concentrations as for neuron survival
microglia cells = test: Superoxide generation by LPS-activated microglia (EPR, DMPO spin trap); format: cell-based, rat; conditions: 100 ng/ml LPS
Procedure: To monitor the generation of superoxide by activated microglia, Electron Paramagnetic Resonance (EPR) measurements were performed with 5,5-dimethyl-1-pyrroline-N-oxide (DMPO) as a superoxide spin trap. To confirm that the EPR signal is caused by superoxide, either superoxide dismutase (SOD) or DMSO, which competes with DMPO for hydroxyl radical, were added to the microglia cells together with LPS.
For EPR measurements, microglia cells (100,000) with or without LPS treatment were incubated in 200 μl culture medium containing 120 mm DMPO. After 15 minutes, the medium was removed and analyzed by EPR. EPR spectra were recorded on a Bruker ECS106 spectrometer with the following settings: receiver gain: 5×10^5; microwave power: 20 mW; microwave frequency: 9.81 GHz; modulation amplitude: 1 G; time constant: 1.3 seconds; scan time: 87 seconds; scan width: 80 G. The DMPO-OH signal generated from […] were quantified by comparison with TEMPOL standard after doubly integration of both signals. All scans shown are an accumulation of 7 scans.

primary cortical neurons = test: Neuron survival of primary cortical neurons treated with SIN-1; format: cell-based, rat; conditions: 50 μM SIN-1, 2 μM FeTMPyP, 48 hr
Procedure: To validate the specificity and effectiveness of the peroxynitrite decomposition catalyst FeTMPyP, this catalyst was further tested with neuron cultures treated with SIN 1, an exogenous NO and superoxide donor that, consequently, generates peroxynitrite under physiological conditions [Hogg, 1992]. Primary cortical neurons were treated with 50 μM SIN-1 in the presence or absence of 2 μM FeTMPyP for 48 hr.
Neuron cultures were derived from […] (embryonic day 17) Fishes 344 rat cerebral cortices detailed previously (Banker and Goslin, 1988; Rozovsky et al., 1994) and plated at 5×10^4 viable cells/well is poly-D-lysine (Sigma) coated 24-well plates (Costar). […]
Following treatment, culture inserts containing microglia were removed and neurons were stained with 10 jig/ml fluorescein diacetate (FDA, Sigma) for 10 min. […] Since neuron deaths occur primarily in the region directly underneath the microglia-containing culture inserts (see FIG. 6D), for quantification, eight images at the center of each well were taken with a Nikon TE300 fluorescent microscope and analyzed with the IP Lab imaging software (version 3.54, Scanalytics, Fairfax, Va.). Viable neurons were quantified by the area covered by green fluorescence, after the establishment of a linear relationship between the numbers of stained cells and the green fluorescent area. […]

[2] = tested on: microglia-neuron co-cultures; conditions: 100 ng/ml LPS
[3] = tested on: nitric oxide (NO) production; test: Nitrite measurement in microglia-neuron co-cultures treated with Aβ1-42 and interferon γ; format: cell-based, rat; conditions: 5 μM Aβ1-42 + 10 ng/ml interferon γ, 48 hour; FeTMPyP 2 μM
Procedure: Nitric oxide (NO) production was determined indirectly through the assay of nitrite (NO2), a stable metabolite of NO, based on the Griess reaction (Huygen, 1970; Green et al., 1982; Ding et al., 1988). Briefly, a 50 μl aliquot of conditioned media was mixed with an equal volume of Griess reagent (0.1% N-(1-naphthyl)ethylenediamine dihydrochloride, 1% sufanilamide, and 2.5% phosphoric acid, all from Sigma), and incubated for 10 min at 22° C. The absorbance was read at 550 nm on a microtiter plate reader (Spectra MAX 250, Molecular Devices, Sunnyvale, Calif.). Nitrite concentrations were calculated from a standard curve of NaNO2 (Sigma) ranging from 0 to 100 μM. Background NO2 was subtracted from the experimental values.

neurons = test: TUNEL staining of neurons from Aβ1-42-treated microglia-neuron co-cultures; format: cell-based, rat; conditions: 5 μM Aβ1-42 + 10 ng/ml interferon γ, 24 hours
Procedure: DNA cleavage in apoptotic nuclei was detected with In Situ Cell Death Detection Kit as described by the manufacturer (Roche Molecular Biochemicals, Indianapolis, Ind.). Briefly, cells were fixed with paraformaldehyde (4% in PBS, pH 7.4) and permeablized (0.1% Triton X-100 in 0.1% sodium citrate). After incubation for 1 hr at 37° C. in terminal deoxynucleotidyl transferase (TdT) reaction mixture, signals were visualized under a fluorescence microscope (excitation/emission wavelengths: 450-500 nm/515-565 nm). Samples were further blotted with alkaline phosphatase-conjugated anti-fluorescein antibody. Following color reaction, samples were analyzed under a light microscope.

[4] = tested on: microglia-neuron co-cultures
TNF-α secretion = test: TNF-α Elisa of culture supernatants of LPS-treated microglia-neuron co-cultures; format: cell-based, rat; conditions: 100 ng/ml LPS, 48 hours; for effect on TNF-α secretion: PEN 500 μM, THA 200 μM
Procedure: Levels of secreted TNF-α in culture supernatants were determined by an enzyme-linked immuno-sorbent assay (Elisa) kit following manufacturer's instructions (BioSource International, Camarillo, Calif.).

Lipopolysaccharide [LPS]
beginning of nitrite generation [1]: 6 h | peak of nitrite generation [1]: approximately 14 hours | peak of superoxide generation (microglia cells): 12 h

C[n+]1ccc(-c2c3nc(c(-c4cc[n+](C)cc4)c4ccc([n-]4)c(-c4cc[n+](C)cc4)c4nc(c(-c5cc[n+](C)cc5)c5ccc2[n-]5)C=C4)C=C3)cc1.[Cl-].[Fe+3] [FeTMPyP, 5,10,15,20-Tetrakis(N methyl-4′-pyridyl)porphinato iron (III) chloride]
protection of neurons against SIN-1 induced peroxynitrite toxicity (primary cortical neurons): effectively protected | effect on nitrite accumulation / NO production [1]: without decreasing NO production | optimal concentration of protective action against LPS-induced microglial neurotoxicity ([2]; dose-dependent): 2 µM | effect on nitric oxide production [3]: without compromising nitric oxide production

Aβ1-42: amyloid β-peptide 1-42, aggregated (fibrillar), applied with 10 ng/ml interferon γ as priming factor
TUNEL-labeled neurons (neurons): majority | death of neurons [4]: over 80% | neurotoxicity in the absence of microglia [4]: did not result in neurotoxicity

O=C1CCC(N2C(=O)c3ccccc3C2=O)C(=O)N1 (stereo not drawn) [thalidomide]
effect on nitrite accumulation / NO production [1]: inhibited | effect on TNF-α secretion (TNF-α secretion): inhibited

Cl.O=S(=O)([O-])c1ccc(-c2c3nc(c(-c4ccc(S(=O)(=O)O)cc4)c4ccc([nH]4)c(-c4ccc(S(=O)(=O)O)cc4)c4nc(c(-c5ccc(S(=O)(=O)O)cc5)c5ccc2[nH]5)C=C4)C=C3)cc1.[Fe] [FeTPPS, 5,10,15,20-Tetrakis(4-sulfonatophenyl)prophyrinato iron (III) chloride]
effect on nitrite accumulation / NO production [1]: without decreasing NO production

CC(=O)CCCCn1c(=O)c2c(ncn2C)n(C)c1=O [pentoxifylline]
effect on nitrite accumulation / NO production [1]: little effect; also recorded: did not decrease nitrite/NO generation | effect on TNF-α secretion (TNF-α secretion): inhibits

CNC(=N)NCCC[C@H](N)C(=O)O [L-NMMA, N^G-Monomethyl-L-arginine]
effect on nitrite accumulation / NO production [1]: completely blocked | viable neurons ([2]; 48 hours, 1 mM L-NMMA added at the same time with LPS): 92.4±7.4 % of control | reduction of TNF-α secretion (TNF-α secretion; 1 mM L-NMMA): 35%

— patent US20030152646A1, “Method of treating conditions caused by activated microglia” (priority 2001, published 2003)
